# Results reported in patent publication US8962608B2, “Cycloalkylnitrile pyrazole carboxamides as janus kinase inhibitors” (Merck Sharp & Dohme Corp., priority 2011, dated 2015).
# Biological target: JAK2 (recombinant purified GST-tagged catalytic domain) (Homo sapiens (Human), UniProt O60674);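 note: biochemical JAK kinase assay with HTRF detection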
# Experiment: biochemical
# Sequence of JAK2 (recombinant purified GST-tagged catalytic domain) (O60674 849-1124): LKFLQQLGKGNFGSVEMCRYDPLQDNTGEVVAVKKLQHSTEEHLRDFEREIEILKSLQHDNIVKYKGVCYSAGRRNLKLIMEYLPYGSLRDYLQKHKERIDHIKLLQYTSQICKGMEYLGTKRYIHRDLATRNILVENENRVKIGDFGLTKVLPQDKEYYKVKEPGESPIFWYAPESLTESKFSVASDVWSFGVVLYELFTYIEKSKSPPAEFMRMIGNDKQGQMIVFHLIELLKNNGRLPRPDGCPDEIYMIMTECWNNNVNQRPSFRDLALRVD
row,IC50,Structure (SMILES)
1,357 nM,"CN(C)CC1CCC(n2cc(C(N)=O)c(Nc3ccc(F)cc3)n2)[C@H](C#N)C1 (mixture of isomers) [Example 10, 1-((1R,2R and 1S,2S)-2-Cyano-4-((dimethylamino)methyl)cyclohexyl)-3-((4-fluorophenyl)amino)-1H-pyrazole-4-carboxamide]"
2,173 nM,"CN(C)[C@@H]1CC[C@H](n2cc(C(N)=O)c(Nc3ccc(Cl)c(F)c3)n2)[C@@H](C#N)C1 (single isomer, unassigned) [Example 28-38, 3-[(4-chloro-3-fluorophenyl)amino]-1-[(1S,2S,4R or 1R,2R,4S)-2-cyano-4-(dimethylamino)cyclohexyl]-1H-pyrazole-4-carboxamide]"
3,20 nM,"CC(C)(C)OC(=O)NC1CC[C@@H](C#N)C(n2cc(C(N)=O)c(Nc3ccc(F)cc3)n2)C1 (mixture of isomers) [Example 11-4, tert-butyl [(3R,4S and 3S,4R)-3-{4-carbamoyl-3-[(4-fluorophenyl)amino]-1H-pyrazol-1-yl}-4-cyanocyclohexyl]carbamate]"
4,155 nM,"CN(C)[C@@H]1CC[C@H](n2cc(C(N)=O)c(Nc3ccc(C(F)(F)F)nc3)n2)[C@@H](C#N)C1 (single isomer, unassigned) [Example 28-25, 1-[(1S,2S,4R or 1R,2R,4S)-2-cyano-4-(dimethylamino)cyclohexyl]-3-{[6-(trifluoromethyl)pyridin-3-yl]amino}-1H-pyrazole-4-carboxamide]"
5,5 nM,"N#C[C@H]1CCCCC1n1cc(C(N)=O)c(Nc2ccc(S(=O)(=O)C(F)F)cc2)n1 (mixture of isomers) [Example 17-9, 1-[(1S,2S and 1R,2R)-2-cyanocyclohexyl]-3-({4-[(difluoromethyl)sulfonyl]phenyl}amino)-1H-pyrazole-4-carboxamide]"
6,200 nM,"C[C@H](N[C@H]1CC[C@H](n2cc(C(N)=O)c(Nc3ccc(C(F)(F)F)nc3)n2)[C@@H](C#N)C1)C1CC1 (single isomer, unassigned) [Example 28-8, 1-[(1S,2S,4S or 1R,2R,4R)-2-cyano-4-{[(1S)-1-cyclopropylethyl]amino}cyclo-hexyl]-3-{[6-(trifluoromethyl)pyridin-3-yl]amino}-1H-pyrazole-4-carboxamide]"
7,7 nM,"N#C[C@H]1CC(NC2CC2)CCC1n1cc(C(N)=O)c(Nc2ccc(S(=O)(=O)C(F)(F)F)cc2)n1 (mixture of isomers) [Example 27-10, 1-[(1S,2S and 1R,2R)-2-cyano-4-(cyclopropylamino)cyclohexyl]-3-({4-[(trifluoromethyl)sulfonyl]phenyl}amino)-1H-pyrazole-4-carboxamide]"
8,2 nM,"CN(C(C1CC1)C1CC1)[C@H]1CC[C@H](n2cc(C(N)=O)c(Nc3ccc(S(=O)(=O)C(F)(F)F)cc3)n2)[C@@H](C#N)C1 (single isomer, unassigned) [Example 28-178, 1-{(1S,2S,4S or 1R,2R,4R)-2-cyano-4-[(dicyclopropyl-methyl)(methyl)amino]cyclo-hexyl}-3-({4-[(trifluoromethyl)sulfonyl]phen-yl}amino)-1H-pyrazole-4-carboxamide]"
9,19 nM,"N#C[C@@H]1C[C@H](OCC2CC2)CC[C@H]1n1cc(C(N)=O)c(Nc2ccc([C@@H](O)C(F)(F)F)cc2)n1 (single isomer, unassigned) [Example 26-8, 1-[(1R,2R,4R or 1S,2S,4S)-2-cyano-4-(cyclopropylmethoxy)cyclohexyl]-3-({4-[(1R or 1S)-2,2,2-trifluoro-1-hydroxyethyl]phenyl}amino)-1H-pyrazole-4-carboxamide]"
10,11 nM,"N#C[C@H]1C[C@@H](N2CCC2)CC[C@@H]1n1cc(C(N)=O)c(Nc2ccc([C@H](O)C(F)(F)F)cc2)n1 (single isomer, unassigned) [Example 28-47, 1-[(1S,2S,4S or 1R,2R,4R)-4-azetidin-1-yl-2-cyanocyclohexyl]-3-({4-[(1S or 1R)-2,2,2-trifluoro-1-hydroxyethyl]phenyl}amino)-1H-pyrazole-4-carboxamide]"
11,55 nM,"N#C[C@H]1C[C@@H](NCCC(F)(F)F)CC[C@@H]1n1cc(C(N)=O)c(Nc2ccc(S(=O)(=O)C(F)(F)F)cc2)n1 (single isomer, unassigned) [Example 28-166, 1-{(1S,2S,4S or 1R,2R,4R)-2-cyano-4-[(3,3,3-trifluoro-propyl)amino]cyclohexyl}-3-({4-[(trifluoro-methyl)sulfonyl]phenyl}amino)-1H-pyrazole-4-carboxamide]"
12,6 nM,"CN(CC(F)(F)F)[C@H]1CCC(n2cc(C(N)=O)c(Nc3ccnc(F)c3)n2)[C@@H](C#N)C1 (single isomer, unassigned) [Example 28-233, 1-{(1S,2S,4S or 1R,2R,4R)-2-cyano-4-[methyl(2,2,2-trifluoroethyl)amino]cyclo-hexyl}-3-[(2-fluoropyridin-4-yl)amino]-1 H-pyrazole-4-carboxamide]"
13,2 nM,"N#C[C@@H]1CCCC[C@H]1n1cc(C(N)=O)c(Nc2ccc(S(=O)(=O)C(F)F)cc2)n1 (single isomer, unassigned) [Example 43-6, 1-[(1S,2S or 1R,2R)-2-cyanocyclohexyl]-3-({4-[(difluoromethyl)sulfonyl]phenyl}amino)-1H-pyrazole-4-carboxamide]"
14,13 nM,"N#C[C@H]1C[C@H](OC(=O)Nc2ccccc2)CCC1n1cc(C(N)=O)c(Nc2ccc(F)cc2)n1 (mixture of isomers) [Example 34-3, (1R,3S,4S and 1S,3R,4R)-4-{4-carbamoyl-3-[(4-fluorophonyl)aminol-1H-pyrazol-1-yl}-3-cyanocyclohexyl phenylcarbamate]"
15,> 1500 nM,"N#C[C@H]1C[C@@H](OCC2CC2)CC[C@H]1n1cc(C(N)=O)c(Nc2ccc(F)cc2)n1 (single isomer, unassigned) [Example 26-11, 1-[(1R,2S,4S or 1S,2R,4R)-2-cyano-4-(cyclopropylmethoxy)cyclohexyl]-3-[(4-fluorophenyl)amino]-1H-pyrazole-4-carboxamide]"
16,42 nM,"N#C[C@H]1CCCC[C@@H]1n1cc(C(N)=O)c(Nc2ccc(F)c(Cl)c2)n1 (racemic) [Example 17-58, 3-[(3-chloro-4-fluorophenyl)amino]-1-[(1S,2S and 1R,2R)-2-cyanocyclohexyl]-1H-pyrazole-4-carboxamide]"
17,107 nM,"N#C[C@H]1C[C@@H](OC(=O)Nc2ccccc2)CCC1n1cc(C(N)=O)c(Nc2ccc(F)cc2)n1 (mixture of isomers) [Example 34-1, (1S,3S,4S and 1R,3R,4R)-4-{4-Carbamoyl-3-[(4-fluorophenyl)amino]-1H-pyrazol-1-yl}-3-cyanocyclohexyl phenylcarbamate]"
18,800 nM,"CN(C)[C@H]1CC[C@@H](n2cc(C(N)=O)c(Nc3ccc(C(F)(F)F)nc3)n2)[C@H](C#N)C1 (single isomer, unassigned) [Example 28-27, 1-[(1R,2R,4S or 1S,2S,4R)-2-cyano-4-(dimethylamino)cyclohexyl]-3-{[6-(trifluoromethyl)pyridin-3-yl]amino}-1H-pyrazole-4-carboxamide]"

row,Structure (SMILES),IC50
1,"N#C[C@H]1C[C@@H](NCC(F)F)CC[C@@H]1n1cc(C(N)=O)c(Nc2ccc(Cl)c(F)c2)n1 (single isomer, unassigned) [Example 28-90, 3-[(4-chloro-3-fluorophenyl)amino]-1-{(1S,2S,4S or 1R,2R,4R)-2-cyano-4-[(2,2-difluoroethyl)amino]cyclohexyl}-1H-pyrazole-4-carboxamide]",35 nM

# Biological target: JAK1 (recombinant purified GST-tagged catalytic domain) (Homo sapiens (Human), UniProt P23458);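 note: biochemical assay with HTRF read-out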
# Sequence (P23458 875-1153): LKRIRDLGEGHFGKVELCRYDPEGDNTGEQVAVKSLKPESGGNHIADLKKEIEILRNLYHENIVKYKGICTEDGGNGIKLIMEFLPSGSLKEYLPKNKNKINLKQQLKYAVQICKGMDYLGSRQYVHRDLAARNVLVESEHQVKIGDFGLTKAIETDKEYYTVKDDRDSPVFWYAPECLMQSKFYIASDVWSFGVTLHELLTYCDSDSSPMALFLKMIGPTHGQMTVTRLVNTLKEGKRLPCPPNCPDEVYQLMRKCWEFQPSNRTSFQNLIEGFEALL
# Experiment: biochemical
row,IC50,Structure (SMILES)
1,11 nM,"CN(C)CC1CCC(n2cc(C(N)=O)c(Nc3ccc(F)cc3)n2)[C@H](C#N)C1 (mixture of isomers) [Example 10, 1-((1R,2R and 1S,2S)-2-Cyano-4-((dimethylamino)methyl)cyclohexyl)-3-((4-fluorophenyl)amino)-1H-pyrazole-4-carboxamide]"
2,7 nM,"CN(C)[C@@H]1CC[C@H](n2cc(C(N)=O)c(Nc3ccc(Cl)c(F)c3)n2)[C@@H](C#N)C1 (single isomer, unassigned) [Example 28-38, 3-[(4-chloro-3-fluorophenyl)amino]-1-[(1S,2S,4R or 1R,2R,4S)-2-cyano-4-(dimethylamino)cyclohexyl]-1H-pyrazole-4-carboxamide]"

row,Structure (SMILES),IC50
1,"N#C[C@H]1C[C@@H](NCC(F)F)CC[C@@H]1n1cc(C(N)=O)c(Nc2ccc(Cl)c(F)c2)n1 (single isomer, unassigned) [Example 28-90, 3-[(4-chloro-3-fluorophenyl)amino]-1-{(1S,2S,4S or 1R,2R,4R)-2-cyano-4-[(2,2-difluoroethyl)amino]cyclohexyl}-1H-pyrazole-4-carboxamide]",4 nM
